Source: ChEMBL document CHEMBL4507293 (2021)

How the values were obtained:
[1] = tested on: Tyrosine-protein kinase ABL1 (Homo sapiens), P00519 [F317I]; details: Compound concentration 100.0 nM
[2] = target: Tyrosine-protein kinase Blk (Homo sapiens) (UniProt P51451); details: Compound concentration 100.0 nM
[3] = target: Homeodomain-interacting protein kinase 3 (Homo sapiens) (UniProt Q9H422); details: Compound concentration 100.0 nM
[4] = target: Non-receptor tyrosine-protein kinase TNK1 (Homo sapiens) (UniProt Q13470); details: Compound concentration 100.0 nM
[5] = target: Serine/threonine-protein kinase MRCK beta (Homo sapiens) (UniProt Q9Y5S2); details: Compound concentration 100.0 nM
[6] = target: Cytoplasmic tyrosine-protein kinase BMX (Homo sapiens) (UniProt P51813); details: Compound concentration 100.0 nM
[7] = target: Serine/threonine-protein kinase ICK (Homo sapiens) (UniProt Q9UPZ9); details: Compound concentration 100.0 nM
[8] = target: Dual specificity protein kinase CLK2 (Homo sapiens) (UniProt P49760); details: Compound concentration 100.0 nM
Chain of Dual specificity protein kinase CLK2 (Homo sapiens) (P49760 whole entry, looked up): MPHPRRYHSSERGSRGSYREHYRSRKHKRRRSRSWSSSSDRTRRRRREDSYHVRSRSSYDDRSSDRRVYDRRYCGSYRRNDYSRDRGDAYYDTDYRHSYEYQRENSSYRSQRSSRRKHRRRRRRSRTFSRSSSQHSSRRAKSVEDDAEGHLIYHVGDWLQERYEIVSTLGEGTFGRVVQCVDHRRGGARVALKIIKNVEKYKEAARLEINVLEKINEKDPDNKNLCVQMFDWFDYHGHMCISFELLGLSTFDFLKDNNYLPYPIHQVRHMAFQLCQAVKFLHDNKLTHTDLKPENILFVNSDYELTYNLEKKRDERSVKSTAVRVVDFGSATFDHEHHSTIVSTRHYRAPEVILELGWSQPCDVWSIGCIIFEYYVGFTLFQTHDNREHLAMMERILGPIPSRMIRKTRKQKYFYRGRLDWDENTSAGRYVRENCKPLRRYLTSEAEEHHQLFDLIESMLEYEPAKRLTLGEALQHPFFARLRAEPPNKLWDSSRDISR

[9] = target: Phosphatidylinositol 3-kinase catalytic subunit type 3 (Homo sapiens) (UniProt Q8NEB9); details: Compound concentration 100.0 nM
[10] = target: Calcium-dependent protein kinase 1 (Plasmodium falciparum) (UniProt P62344); details: Compound concentration 100.0 nM
[11] = tested on: Receptor-type tyrosine-protein kinase FLT3 (Homo sapiens), P36888 [UNDEFINED MUTATION]; details: Compound concentration 100.0 nM
[12] = target: GABA-A receptor; anion channel (Rattus norvegicus) (UniProt O09028+P15431+P18506+P18508+P19969+P20236+P23574+P23576+P28471+P28473+P30191+P62813+P63079+P63138+Q91ZM7+Q9ES14); details: Compound concentration 10.0 uM
[13] = target: Serine/threonine-protein kinase D1 (Homo sapiens) (UniProt Q15139); details: Compound concentration 100.0 nM
[14] = target: Tyrosine-protein kinase Lck (Homo sapiens) (UniProt P06239); details: Compound concentration 100.0 nM
[15] = target: Phosphatidylinositol 4,5-bisphosphate 3-kinase catalytic subunit delta isoform (Homo sapiens) (UniProt O00329); details: Compound concentration 100.0 nM
[16] = target: Phosphatidylinositol 4,5-bisphosphate 3-kinase catalytic subunit alpha isoform (Homo sapiens) (UniProt P42336); details: Compound concentration 100.0 nM
[17] = target: Beta-1 adrenergic receptor (Homo sapiens) (UniProt P08588); details: Compound concentration 10.0 uM
[18] = target: Phosphatidylinositol 4,5-bisphosphate 3-kinase catalytic subunit gamma isoform (Homo sapiens) (UniProt P48736); details: Compound concentration 100.0 nM
[19] = target: Dual specificity calcium/calmodulin-dependent 3',5'-cyclic nucleotide phosphodiesterase 1A (Homo sapiens, UniProt P54750); experiment: Biochemical assay (PDE1A)
[20] = target: Serine/threonine-protein kinase Sgk1 (Homo sapiens) (UniProt O00141); details: Compound concentration 100.0 nM
[21] = target: 3',5'-cyclic-AMP phosphodiesterase 4A (Homo sapiens, UniProt P27815); experiment: Biochemical assay (PDE4A)
[22] = tested on: ALK tyrosine kinase receptor (Homo sapiens), Q9UM73 [C1156Y]; details: Compound concentration 100.0 nM
[23] = target: Serine/threonine-protein kinase LATS1 (Homo sapiens) (UniProt O95835); details: Compound concentration 100.0 nM
[24] = target: T1, Muscarinic acetylcholine receptor M1 (Homo sapiens) (UniProt P11229); details: Compound concentration 10.0 uM
T1 sequence (whole entry): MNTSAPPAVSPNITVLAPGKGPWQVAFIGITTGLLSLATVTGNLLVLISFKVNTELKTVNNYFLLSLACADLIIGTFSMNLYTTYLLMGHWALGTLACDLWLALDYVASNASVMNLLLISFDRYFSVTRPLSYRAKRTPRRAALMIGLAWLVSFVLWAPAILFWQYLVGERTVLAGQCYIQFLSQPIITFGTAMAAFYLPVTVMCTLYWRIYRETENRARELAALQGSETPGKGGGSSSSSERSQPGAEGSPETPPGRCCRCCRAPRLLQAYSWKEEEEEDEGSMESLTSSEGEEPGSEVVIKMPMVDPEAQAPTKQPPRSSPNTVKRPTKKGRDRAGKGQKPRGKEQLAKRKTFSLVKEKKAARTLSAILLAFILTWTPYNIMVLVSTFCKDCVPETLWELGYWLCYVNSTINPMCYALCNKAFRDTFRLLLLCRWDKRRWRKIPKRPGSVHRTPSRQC

[25] = target: Ribosomal protein S6 kinase alpha-3 (Homo sapiens) (UniProt P51812); details: Compound concentration 100.0 nM
[26] = target: Serine/threonine-protein kinase 24 (Homo sapiens) (UniProt Q9Y6E0); details: Compound concentration 100.0 nM
Chain of Serine/threonine-protein kinase 24 (Homo sapiens) (Q9Y6E0 whole entry, looked up): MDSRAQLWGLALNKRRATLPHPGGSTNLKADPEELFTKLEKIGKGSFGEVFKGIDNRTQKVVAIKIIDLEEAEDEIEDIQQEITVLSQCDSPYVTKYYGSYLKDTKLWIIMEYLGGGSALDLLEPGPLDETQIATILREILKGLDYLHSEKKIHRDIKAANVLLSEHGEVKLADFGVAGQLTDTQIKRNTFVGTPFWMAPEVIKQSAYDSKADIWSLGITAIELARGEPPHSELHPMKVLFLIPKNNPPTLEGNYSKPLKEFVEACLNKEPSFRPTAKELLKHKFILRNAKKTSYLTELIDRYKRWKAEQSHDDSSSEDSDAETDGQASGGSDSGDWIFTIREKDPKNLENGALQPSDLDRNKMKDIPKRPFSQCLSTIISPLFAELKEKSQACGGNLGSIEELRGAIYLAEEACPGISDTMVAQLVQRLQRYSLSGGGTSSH

[27] = target: Calcium/calmodulin-dependent protein kinase kinase 1 (Homo sapiens) (UniProt Q8N5S9); details: Compound concentration 100.0 nM
Chain of Calcium/calmodulin-dependent protein kinase kinase 1 (Homo sapiens) (Q8N5S9 whole entry, looked up): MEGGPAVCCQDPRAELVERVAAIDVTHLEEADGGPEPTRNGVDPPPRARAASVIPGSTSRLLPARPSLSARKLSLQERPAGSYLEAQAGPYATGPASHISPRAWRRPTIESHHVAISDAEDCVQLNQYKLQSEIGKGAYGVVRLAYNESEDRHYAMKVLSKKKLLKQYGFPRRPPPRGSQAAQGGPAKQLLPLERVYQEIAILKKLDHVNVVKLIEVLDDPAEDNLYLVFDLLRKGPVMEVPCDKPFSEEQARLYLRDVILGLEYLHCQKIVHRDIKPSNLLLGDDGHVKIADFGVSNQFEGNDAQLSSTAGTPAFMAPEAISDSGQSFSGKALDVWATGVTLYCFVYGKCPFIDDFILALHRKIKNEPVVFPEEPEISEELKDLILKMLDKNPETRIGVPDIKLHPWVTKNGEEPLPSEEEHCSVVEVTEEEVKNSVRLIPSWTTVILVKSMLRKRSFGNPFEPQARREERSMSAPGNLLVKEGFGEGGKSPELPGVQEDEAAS

[28] = tested on: Epidermal growth factor receptor (Homo sapiens), P00533 [UNDEFINED MUTATION]; details: Compound concentration 100.0 nM
Chain of Epidermal growth factor receptor (Homo sapiens), P00533 [UNDEFINED MUTATION] (P00533 whole entry, looked up, change not shown): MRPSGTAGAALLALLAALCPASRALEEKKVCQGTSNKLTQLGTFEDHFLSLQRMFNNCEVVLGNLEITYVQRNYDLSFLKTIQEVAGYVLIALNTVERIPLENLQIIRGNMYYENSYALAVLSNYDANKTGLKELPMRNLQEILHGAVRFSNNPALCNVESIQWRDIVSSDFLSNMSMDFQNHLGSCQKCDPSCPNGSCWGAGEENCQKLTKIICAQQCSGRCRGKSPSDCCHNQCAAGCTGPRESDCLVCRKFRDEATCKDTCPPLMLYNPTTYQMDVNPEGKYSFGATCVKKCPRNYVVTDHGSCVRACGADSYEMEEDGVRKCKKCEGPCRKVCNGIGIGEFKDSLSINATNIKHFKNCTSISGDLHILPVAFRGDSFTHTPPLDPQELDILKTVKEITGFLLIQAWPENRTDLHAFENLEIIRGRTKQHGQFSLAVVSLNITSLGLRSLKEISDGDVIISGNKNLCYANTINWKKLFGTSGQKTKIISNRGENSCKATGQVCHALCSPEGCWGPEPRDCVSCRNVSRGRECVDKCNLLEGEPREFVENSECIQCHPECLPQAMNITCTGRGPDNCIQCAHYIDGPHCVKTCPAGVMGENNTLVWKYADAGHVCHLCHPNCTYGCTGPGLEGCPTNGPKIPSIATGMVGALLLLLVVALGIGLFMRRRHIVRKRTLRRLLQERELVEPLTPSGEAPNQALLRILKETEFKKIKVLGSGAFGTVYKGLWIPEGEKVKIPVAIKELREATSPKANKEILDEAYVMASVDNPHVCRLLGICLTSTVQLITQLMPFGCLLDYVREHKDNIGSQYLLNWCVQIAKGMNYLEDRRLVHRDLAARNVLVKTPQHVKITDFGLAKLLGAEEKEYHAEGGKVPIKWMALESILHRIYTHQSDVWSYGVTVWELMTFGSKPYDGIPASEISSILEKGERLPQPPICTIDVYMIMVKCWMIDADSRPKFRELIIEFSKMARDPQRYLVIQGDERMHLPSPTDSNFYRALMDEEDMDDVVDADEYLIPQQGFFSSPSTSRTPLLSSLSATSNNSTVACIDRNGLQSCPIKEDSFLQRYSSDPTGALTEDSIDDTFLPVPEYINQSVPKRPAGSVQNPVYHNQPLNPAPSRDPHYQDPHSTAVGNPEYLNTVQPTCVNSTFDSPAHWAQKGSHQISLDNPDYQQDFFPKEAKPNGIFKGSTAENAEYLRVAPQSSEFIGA

[29] = target: Protein kinase C eta type (Homo sapiens) (UniProt P24723); details: Compound concentration 100.0 nM
[30] = tested on: Mast/stem cell growth factor receptor Kit (Homo sapiens), P10721 [V559D,T670I]; details: Compound concentration 100.0 nM
[31] = target: TRAF2 and NCK-interacting protein kinase (Homo sapiens) (UniProt Q9UKE5); details: Compound concentration 100.0 nM
Chain of TRAF2 and NCK-interacting protein kinase (Homo sapiens) (Q9UKE5 whole entry, looked up): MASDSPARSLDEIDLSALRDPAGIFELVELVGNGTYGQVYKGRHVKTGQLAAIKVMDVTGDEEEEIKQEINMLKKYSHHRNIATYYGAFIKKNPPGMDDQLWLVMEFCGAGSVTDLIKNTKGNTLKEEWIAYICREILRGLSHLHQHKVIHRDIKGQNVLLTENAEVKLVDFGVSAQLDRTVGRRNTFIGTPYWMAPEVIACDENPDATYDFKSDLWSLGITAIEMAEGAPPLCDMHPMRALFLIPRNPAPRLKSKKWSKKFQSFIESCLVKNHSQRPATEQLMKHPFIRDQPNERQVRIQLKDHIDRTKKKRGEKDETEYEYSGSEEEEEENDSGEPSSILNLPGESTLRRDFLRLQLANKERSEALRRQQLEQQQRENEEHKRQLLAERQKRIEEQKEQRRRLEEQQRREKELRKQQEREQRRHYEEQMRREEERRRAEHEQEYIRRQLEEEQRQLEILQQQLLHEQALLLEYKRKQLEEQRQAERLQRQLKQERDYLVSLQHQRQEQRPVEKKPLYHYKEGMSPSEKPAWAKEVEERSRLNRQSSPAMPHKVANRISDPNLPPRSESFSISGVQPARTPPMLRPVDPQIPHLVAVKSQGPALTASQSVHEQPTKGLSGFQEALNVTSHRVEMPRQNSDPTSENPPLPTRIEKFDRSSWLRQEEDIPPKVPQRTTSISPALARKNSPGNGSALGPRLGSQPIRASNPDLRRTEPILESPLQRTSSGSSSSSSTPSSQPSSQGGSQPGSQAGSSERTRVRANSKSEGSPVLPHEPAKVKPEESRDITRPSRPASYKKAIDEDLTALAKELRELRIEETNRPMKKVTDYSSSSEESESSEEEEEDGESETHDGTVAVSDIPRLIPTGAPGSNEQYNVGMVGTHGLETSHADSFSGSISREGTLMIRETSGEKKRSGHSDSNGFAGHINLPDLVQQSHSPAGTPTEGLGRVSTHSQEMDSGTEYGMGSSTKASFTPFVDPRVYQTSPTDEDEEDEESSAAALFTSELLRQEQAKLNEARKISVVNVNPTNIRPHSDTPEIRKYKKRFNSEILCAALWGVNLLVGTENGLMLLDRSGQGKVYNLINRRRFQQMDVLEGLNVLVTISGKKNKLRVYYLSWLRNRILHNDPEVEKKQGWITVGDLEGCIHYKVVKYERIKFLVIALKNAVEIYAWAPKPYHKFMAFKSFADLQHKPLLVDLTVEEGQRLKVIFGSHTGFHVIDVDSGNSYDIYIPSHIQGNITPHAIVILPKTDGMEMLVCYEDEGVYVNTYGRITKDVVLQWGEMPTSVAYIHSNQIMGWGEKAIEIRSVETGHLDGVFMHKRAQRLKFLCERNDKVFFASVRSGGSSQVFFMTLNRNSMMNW

[32] = target: cAMP-dependent protein kinase catalytic subunit PRKX (Homo sapiens) (UniProt P51817); details: Compound concentration 100.0 nM
[33] = target: Casein kinase II subunit alpha' (Homo sapiens) (UniProt P19784); details: Compound concentration 100.0 nM
[34] = target: Tyrosine-protein kinase JAK1 (Homo sapiens) (UniProt P23458); details: Compound concentration 100.0 nM
[35] = target: Tyrosine-protein kinase Lyn (Homo sapiens) (UniProt P07948); details: Compound concentration 100.0 nM
[36] = target: Tyrosine-protein kinase Srms (Homo sapiens) (UniProt Q9H3Y6); details: Compound concentration 100.0 nM
Chain of Tyrosine-protein kinase Srms (Homo sapiens) (Q9H3Y6 whole entry): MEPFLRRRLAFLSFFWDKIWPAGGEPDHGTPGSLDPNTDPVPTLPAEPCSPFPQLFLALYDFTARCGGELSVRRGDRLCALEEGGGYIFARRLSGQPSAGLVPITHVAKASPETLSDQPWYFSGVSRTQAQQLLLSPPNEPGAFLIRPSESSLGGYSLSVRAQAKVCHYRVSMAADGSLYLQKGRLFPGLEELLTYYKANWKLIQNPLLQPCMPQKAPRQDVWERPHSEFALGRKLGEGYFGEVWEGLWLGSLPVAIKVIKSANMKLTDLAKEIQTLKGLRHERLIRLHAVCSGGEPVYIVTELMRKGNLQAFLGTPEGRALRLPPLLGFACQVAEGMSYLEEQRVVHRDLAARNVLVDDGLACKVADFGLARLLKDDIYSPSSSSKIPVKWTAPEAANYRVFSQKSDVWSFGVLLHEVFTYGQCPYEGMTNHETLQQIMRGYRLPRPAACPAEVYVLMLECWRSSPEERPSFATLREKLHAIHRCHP

[37] = target: Tyrosine-protein kinase receptor TYRO3 (Homo sapiens) (UniProt Q06418); details: Compound concentration 100.0 nM

Chain of Tyrosine-protein kinase Blk (Homo sapiens) (P51451 2-505 limits assumed): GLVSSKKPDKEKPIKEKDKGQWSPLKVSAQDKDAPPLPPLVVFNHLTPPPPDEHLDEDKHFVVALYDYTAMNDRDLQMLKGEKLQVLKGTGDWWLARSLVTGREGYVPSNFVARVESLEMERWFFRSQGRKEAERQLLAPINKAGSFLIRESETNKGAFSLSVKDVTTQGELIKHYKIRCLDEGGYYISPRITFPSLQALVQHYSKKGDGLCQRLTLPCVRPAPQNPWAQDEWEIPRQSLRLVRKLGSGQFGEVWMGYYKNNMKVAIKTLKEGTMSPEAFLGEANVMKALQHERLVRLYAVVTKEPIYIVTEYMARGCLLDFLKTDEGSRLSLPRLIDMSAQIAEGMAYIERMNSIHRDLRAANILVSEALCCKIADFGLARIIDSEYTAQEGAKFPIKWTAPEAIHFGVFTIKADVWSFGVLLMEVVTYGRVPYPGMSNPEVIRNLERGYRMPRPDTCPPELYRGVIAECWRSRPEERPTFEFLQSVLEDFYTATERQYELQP

| Compound | residual activity [1] | residual activity [2] | residual activity [3] | residual activity [4] | residual activity [5] | residual activity [6] | residual activity [7] | residual activity [8] | residual activity [9] | residual activity [10] | residual activity [11] | inhibition [12] | residual activity [13] | residual activity [14] | residual activity [15] | residual activity [16] | inhibition [17] | residual activity [18] | Ki [19] | residual activity [20] | other results |
| --- | --- | --- | --- | --- | --- | --- | --- | --- | --- | --- | --- | --- | --- | --- | --- | --- | --- | --- | --- | --- | --- |
| CC(C)CC(=O)N1CCc2nc(-c3ccc(Br)cc3)nc(N(C)Cc3ccccc3)c2C1 [THPP-1-NC] | 100% | 84% | 100% | 100% | 99% | 100% | 100% | 100% | 100% | 100% | 99% | -4.66% | 87% | 100% | 82% | 77% | 29.5% | 100% | > 58.3 µM (not active) | 99% | Ki [21]: 9.83 µM (not active); residual activity [22]: 100%; residual activity [23]: 67%; inhibition [24]: 4.18%; residual activity [25]: 94%; residual activity [26]: 100%; residual activity [27]: 100%; residual activity [28]: 99%; residual activity [29]: 94%; residual activity [30]: 95%; residual activity [31]: 100%; residual activity [32]: 100%; residual activity [33]: 88%; residual activity [34]: 71%; residual activity [35]: 88%; residual activity [36]: 100%; residual activity [37]: 100% |
| COCCOc1nc(-c2ccc(Cl)nc2)nc2c1CN(C(=O)c1ncn3ccccc13)CC2 [THPP-1] | 100% | 75% | 100% | 100% | 100% | 100% | 100% | 100% | 100% | 100% | 96% | 15% | 90% | 100% | 94% | 85% | 16.8% | 100% | > 50 µM (not active) | 91% | Ki [21]: 5.9 µM (not active); residual activity [22]: 100%; residual activity [23]: 70%; inhibition [24]: -4.03%; residual activity [25]: 100%; residual activity [26]: 100%; residual activity [27]: 100%; residual activity [28]: 100%; residual activity [29]: 97%; residual activity [30]: 100%; residual activity [31]: 100%; residual activity [32]: 100%; residual activity [33]: 100%; residual activity [34]: 76%; residual activity [35]: 73%; residual activity [36]: 100%; residual activity [37]: 100% |
